Laboratory results published in patent US20150191469A1, “COMPOUNDS AND METHODS FOR TREATING HIV” (priority 2012, published 2015).

What follows are molecules tested on HIV (assay: MT4 assay: antiviral HIV activity (cell protection, cell titer glo readout at 96 hours)). Settings: Human immunodeficiency virus 1, MT4, 96 h, MT4 cells, cell titer glo readout at 96 hours, 10 point dose response; read-out: HIV MT4 Assay IC50.
Assay type: cell-based
Summary of the method: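 MT-4 cells infected with HIV, with inhibition readout by CellTiter-Glo luminescence at 96 h relative to no-compound control. Cytotoxicity measured in parallel under the same conditions. IC50 from a 10-point, 3-4-fold dilution series spanning >1000-fold, fitted with a four-parameter logistic equation.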
Work on `Cc1nc2c(cc(C(=O)NCc3ccc(F)cc3)n2C)c(-c2cc(F)c3c(c2C)CCCO3)c1[C@H](OC(C)(C)C)C(=O)O` [Example 230] yielded an IC50 of 0.0047 µM. For `COCCNC(=O)c1cc2c(-c3cc(F)c4c(c3C)CCCO4)c([C@H](OC(C)(C)C)C(=O)O)c(C)nc2n1C` [Example 231], the IC50 was 0.0487 µM. `Cc1nc2c(cc(C(=O)NCCC(C)(C)C)n2C)c(-c2cc(F)c3c(c2C)CCCO3)c1[C@H](OC(C)(C)C)C(=O)O` [Example 232] gave an IC50 of 0.002 µM. `COc1ccc(CNC(=O)c2cc3c(-c4cc(F)c5c(c4C)CCCO5)c([C@H](OC(C)(C)C)C(=O)O)c(C)nc3n2C)cc1` [Example 233] was tested, and the IC50 was 0.0036 µM. Work on `Cc1nc2c(cc(C(=O)NC3CC3)n2C)c(-c2cc(F)c3c(c2C)CCCO3)c1[C@H](OC(C)(C)C)C(=O)O` [Example 234] yielded an IC50 of 0.0447 µM. Molecule `CSCCNC(=O)c1cc2c(-c3cc(F)c4c(c3C)CCCO4)c([C@H](OC(C)(C)C)C(=O)O)c(C)nc2n1C` [Example 235] has an IC50 of 0.0324 µM. With `Cc1nc2c(cc(C(=O)NCCS(C)(=O)=O)n2C)c(-c2cc(F)c3c(c2C)CCCO3)c1[C@H](OC(C)(C)C)C(=O)O` [Example 236] the IC50 was 4.14 µM. With `Cc1nc2c(cc(C(=O)NCC3CCCCC3)n2C)c(-c2cc(F)c3c(c2C)CCCO3)c1[C@H](OC(C)(C)C)C(=O)O` [Example 237] the IC50 was 0.0043 µM. Molecule `Cc1nc2c(cc(C(=O)NCCO)n2C)c(-c2cc(F)c3c(c2C)CCCO3)c1[C@H](OC(C)(C)C)C(=O)O` [Example 238] has an IC50 of 3.86 µM. `CCCCNC(=O)c1cc2c(-c3cc(F)c4c(c3C)CCCO4)c([C@H](OC(C)(C)C)C(=O)O)c(C)nc2n1C` [Example 239] gave an IC50 of 0.0065 µM. Work on `Cc1nc2c(cc(C(=O)NCCN3CCOCC3)n2C)c(-c2cc(F)c3c(c2C)CCCO3)c1[C@H](OC(C)(C)C)C(=O)O` [Example 240] yielded an IC50 of 0.37 µM. `Cc1nc2c(cc(C(=O)NCCC3CCOCC3)n2C)c(-c2cc(F)c3c(c2C)CCCO3)c1[C@H](OC(C)(C)C)C(=O)O` [Example 241] showed an IC50 of 0.0212 µM. `Cc1nc2c(cc(C(=O)NC(C)(C)C)n2C)c(-c2cc(F)c3c(c2C)CCCO3)c1[C@H](OC(C)(C)C)C(=O)O` [Example 242] showed an IC50 of 0.0793 µM. For `Cc1nc2c(cc(C(=O)NCC(C)(C)C)n2C)c(-c2cc(F)c3c(c2C)CCCO3)c1[C@H](OC(C)(C)C)C(=O)O` [Example 243], the IC50 was 0.03 µM. `Cc1nc2c(cc(C(=O)NC(C)C)n2C)c(-c2cc(F)c3c(c2C)CCCO3)c1[C@H](OC(C)(C)C)C(=O)O` [Example 244] showed an IC50 of 0.0253 µM. `Cc1nc2c(cc(C(=O)NCCC(F)(F)F)n2C)c(-c2cc(F)c3c(c2C)CCCO3)c1[C@H](OC(C)(C)C)C(=O)O` [Example 245] showed an IC50 of 0.0225 µM. Work on `Cc1nc2c(cc(C(=O)NCC(C)C)n2C)c(-c2cc(F)c3c(c2C)CCCO3)c1[C@H](OC(C)(C)C)C(=O)O` [Example 246] yielded an IC50 of 0.0151 µM. Work on `Cc1nc2c(cc(C(=O)NCCCN(C)C)n2C)c(-c2cc(F)c3c(c2C)CCCO3)c1[C@H](OC(C)(C)C)C(=O)O` [Example 247] yielded an IC50 of 18.1 µM. `Cc1nc2c(cc(C(=O)NCCN3CCCC3=O)n2C)c(-c2cc(F)c3c(c2C)CCCO3)c1[C@H](OC(C)(C)C)C(=O)O` [Example 248] showed an IC50 of 3.05 µM. For `Cc1nc2c(cc(C(=O)NC3CCCCC3)n2C)c(-c2cc(F)c3c(c2C)CCCO3)c1[C@H](OC(C)(C)C)C(=O)O` [Example 249], the IC50 was 0.0121 µM. For `Cc1nc2c(cc(C(=O)N3CCCC3)n2C)c(-c2cc(F)c3c(c2C)CCCO3)c1[C@H](OC(C)(C)C)C(=O)O` [Example 250], the IC50 was 0.0401 µM. Work on `Cc1nc2c(cc(C(=O)N3CCCCC3)n2C)c(-c2cc(F)c3c(c2C)CCCO3)c1[C@H](OC(C)(C)C)C(=O)O` [Example 251] yielded an IC50 of 0.0283 µM. With `COCCCNC(=O)c1cc2c(-c3cc(F)c4c(c3C)CCCO4)c([C@H](OC(C)(C)C)C(=O)O)c(C)nc2n1C` [Example 252] the IC50 was 0.0652 µM. `Cc1nc2c(cc(C(=O)NCc3c(Cl)cccc3Cl)n2C)c(-c2cc(F)c3c(c2C)CCCO3)c1[C@H](OC(C)(C)C)C(=O)O` [Example 253] showed an IC50 of 0.0019 µM. `Cc1nc2c(cc(C(=O)NCc3c(F)cccc3F)n2C)c(-c2cc(F)c3c(c2C)CCCO3)c1[C@H](OC(C)(C)C)C(=O)O` [Example 254] gave an IC50 of 0.0038 µM. `Cc1nc2c(cc(C(=O)NCc3cccc(Cl)c3)n2C)c(-c2cc(F)c3c(c2C)CCCO3)c1[C@H](OC(C)(C)C)C(=O)O` [Example 255] was tested, and the IC50 was 0.0038 µM. `Cc1nc2c(cc(C(=O)N(C)C3CCCCC3)n2C)c(-c2cc(F)c3c(c2C)CCCO3)c1[C@H](OC(C)(C)C)C(=O)O` [Example 256] showed an IC50 of 0.0345 µM. Work on `Cc1nc2c(cc(C(=O)NCc3c(F)cccc3Cl)n2C)c(-c2cc(F)c3c(c2C)CCCO3)c1[C@H](OC(C)(C)C)C(=O)O` [Example 257] yielded an IC50 of 0.002 µM. `Cc1nc2c(cc(C(=O)N3CCC(C)(C)CC3)n2C)c(-c2cc(F)c3c(c2C)CCCO3)c1[C@H](OC(C)(C)C)C(=O)O` [Example 258] gave an IC50 of 0.0314 µM. Work on `Cc1nc2c(cc(C(=O)NCCC3CCCCC3)n2C)c(-c2cc(F)c3c(c2C)CCCO3)c1[C@H](OC(C)(C)C)C(=O)O` [Example 259] yielded an IC50 of 0.0019 µM. In the case of `Cc1nc2c(cc(C(=O)NCc3ccc4c(c3)OCO4)n2C)c(-c2cc(F)c3c(c2C)CCCO3)c1[C@H](OC(C)(C)C)C(=O)O` [Example 260], the IC50 is reported as 0.0019 µM. With `CCN(C(=O)c1cc2c(-c3cc(F)c4c(c3C)CCCO4)c([C@H](OC(C)(C)C)C(=O)O)c(C)nc2n1C)C1CCCCC1` [Example 261] the IC50 was 0.0468 µM. For `Cc1nc2c(cc(C(=O)NCCc3cccnc3)n2C)c(-c2cc(F)c3c(c2C)CCCO3)c1[C@H](OC(C)(C)C)C(=O)O` [Example 262], the IC50 was 0.103 µM. `Cc1nc2c(cc(C(=O)NCc3ccc(Cl)cc3)n2C)c(-c2cc(F)c3c(c2C)CCCO3)c1[C@H](OC(C)(C)C)C(=O)O` [Example 263] showed an IC50 of 0.0031 µM. `Cc1nc2c(cc(C(=O)NCC3COC3)n2C)c(-c2cc(F)c3c(c2C)CCCO3)c1[C@H](OC(C)(C)C)C(=O)O` [Example 264] was tested, and the IC50 was 0.454 µM. For `Cc1nc2c(cc(C(=O)NCc3cccc(F)c3)n2C)c(-c2cc(F)c3c(c2C)CCCO3)c1[C@H](OC(C)(C)C)C(=O)O` [Example 265], the IC50 was 0.0048 µM. `Cc1nc2c(cc(C(=O)NCc3cccnc3)n2C)c(-c2cc(F)c3c(c2C)CCCO3)c1[C@H](OC(C)(C)C)C(=O)O` [Example 266] gave an IC50 of 0.145 µM. `Cc1nc2c(cc(C(=O)NCc3ccccn3)n2C)c(-c2cc(F)c3c(c2C)CCCO3)c1[C@H](OC(C)(C)C)C(=O)O` [Example 267] showed an IC50 of 0.0261 µM. `Cc1nc2c(cc(C(=O)NCCC(C)C)n2C)c(-c2cc(F)c3c(c2C)CCCO3)c1[C@H](OC(C)(C)C)C(=O)O` [Example 268] gave an IC50 of 0.0034 µM. Work on `COCCN(CCOC)C(=O)c1cc2c(-c3cc(F)c4c(c3C)CCCO4)c([C@H](OC(C)(C)C)C(=O)O)c(C)nc2n1C` [Example 269] yielded an IC50 of 0.0805 µM. `Cc1nc2c(cc(C(=O)N(C)C)n2C)c(-c2cc(F)c3c(c2C)CCCO3)c1[C@H](OC(C)(C)C)C(=O)O` [Example 270] showed an IC50 of 0.112 µM. `Cc1nc2c(cc(C(=O)NC3Cc4ccccc4C3)n2C)c(-c2cc(F)c3c(c2C)CCCO3)c1[C@H](OC(C)(C)C)C(=O)O` [Example 271] was tested, and the IC50 was 0.0016 µM. Work on `Cc1nc2c(cc(C(=O)NCCN3CCCCC3)n2C)c(-c2cc(F)c3c(c2C)CCCO3)c1[C@H](OC(C)(C)C)C(=O)O` [Example 272] yielded an IC50 of 0.294 µM. Molecule `Cc1nc2c(cc(C(=O)NCCCN3CCCC3=O)n2C)c(-c2cc(F)c3c(c2C)CCCO3)c1[C@H](OC(C)(C)C)C(=O)O` [Example 273] has an IC50 of 0.939 µM. For `Cc1nc2c(cc(C(=O)NCc3ccncc3)n2C)c(-c2cc(F)c3c(c2C)CCCO3)c1[C@H](OC(C)(C)C)C(=O)O` [Example 274], the IC50 was 0.208 µM.
